Results published in patent US11358949B2, “Carbamate and urea compounds as multikinase inhibitors” (ANGEX PHARMACEUTICAL, INC., priority 2017, dated 2022).
pIC50: −log10 of the molar value.

Columns and labels:
c-MER = molecular target: T1, c-MER (Homo sapiens, UniProt Q12866); experiment: HotSpot Kinase Assay, c-MER
T1 sequence (Q12866 21-999): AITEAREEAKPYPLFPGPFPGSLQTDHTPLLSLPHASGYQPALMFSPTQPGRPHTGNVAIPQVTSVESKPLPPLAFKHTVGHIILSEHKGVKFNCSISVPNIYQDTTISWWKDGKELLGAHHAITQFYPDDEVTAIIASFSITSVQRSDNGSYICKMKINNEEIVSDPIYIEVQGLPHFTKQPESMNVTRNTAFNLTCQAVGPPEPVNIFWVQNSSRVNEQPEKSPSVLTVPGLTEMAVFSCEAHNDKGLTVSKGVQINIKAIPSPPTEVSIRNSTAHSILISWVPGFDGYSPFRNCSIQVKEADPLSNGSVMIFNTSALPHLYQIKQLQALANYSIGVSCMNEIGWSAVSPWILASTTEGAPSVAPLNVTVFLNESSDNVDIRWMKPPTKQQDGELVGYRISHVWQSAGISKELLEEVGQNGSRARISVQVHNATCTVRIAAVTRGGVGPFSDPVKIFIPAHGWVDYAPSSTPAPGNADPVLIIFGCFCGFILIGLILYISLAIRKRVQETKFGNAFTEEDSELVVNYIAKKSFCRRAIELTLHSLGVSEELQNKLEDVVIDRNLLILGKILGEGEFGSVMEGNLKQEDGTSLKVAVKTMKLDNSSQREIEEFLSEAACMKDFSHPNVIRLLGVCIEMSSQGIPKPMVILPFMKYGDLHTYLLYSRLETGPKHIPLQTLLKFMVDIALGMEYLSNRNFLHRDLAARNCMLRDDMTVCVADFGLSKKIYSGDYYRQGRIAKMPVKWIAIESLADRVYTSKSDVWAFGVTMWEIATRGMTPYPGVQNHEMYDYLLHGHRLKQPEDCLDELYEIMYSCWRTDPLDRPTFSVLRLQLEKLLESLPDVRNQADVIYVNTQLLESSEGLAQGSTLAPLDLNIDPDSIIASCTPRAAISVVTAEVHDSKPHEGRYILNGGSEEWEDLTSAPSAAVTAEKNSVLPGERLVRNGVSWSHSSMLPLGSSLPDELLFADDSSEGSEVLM
Description: (§1) Specifically, for each reaction, kinase and substrate were mixed in a pH 7.5 buffer containing 20 mM HEPES, 10 mM MgCl2, 1 mM EGTA [Ethylene glycol-bis(2-aminoethylether)-N,N,N′,N′-tetraacetic acid], 0.02% Brij35, 0.02 mg/mL BSA (Bovine Serum Albumin), 0.1 mM Na3VO4, 2 mM DTT, and 1% DMSO. Compounds were then added to each reaction mixture. After a 20-min incubation, ATP (Sigma-Aldrich) and [γ-^33P] ATP (PerkinElmer) were added at a final total concentration of 100 μM. Reactions were carried out at room temperature for 2 hours and spotted onto P81 ion exchange cellulose chromatography paper (Whatman). […] The percent remaining kinase activity relative to a vehicle-containing (DMSO) kinase reaction was calculated for each kinase/inhibitor pair. […] IC50 values were calculated using Prism 5 (GraphPad).

EPHA2 = EPHA2 (Homo sapiens, UniProt P29317); experiment: HotSpot Kinase Assay, EPHA2
Sequence of EPHA2 (P29317 24-976): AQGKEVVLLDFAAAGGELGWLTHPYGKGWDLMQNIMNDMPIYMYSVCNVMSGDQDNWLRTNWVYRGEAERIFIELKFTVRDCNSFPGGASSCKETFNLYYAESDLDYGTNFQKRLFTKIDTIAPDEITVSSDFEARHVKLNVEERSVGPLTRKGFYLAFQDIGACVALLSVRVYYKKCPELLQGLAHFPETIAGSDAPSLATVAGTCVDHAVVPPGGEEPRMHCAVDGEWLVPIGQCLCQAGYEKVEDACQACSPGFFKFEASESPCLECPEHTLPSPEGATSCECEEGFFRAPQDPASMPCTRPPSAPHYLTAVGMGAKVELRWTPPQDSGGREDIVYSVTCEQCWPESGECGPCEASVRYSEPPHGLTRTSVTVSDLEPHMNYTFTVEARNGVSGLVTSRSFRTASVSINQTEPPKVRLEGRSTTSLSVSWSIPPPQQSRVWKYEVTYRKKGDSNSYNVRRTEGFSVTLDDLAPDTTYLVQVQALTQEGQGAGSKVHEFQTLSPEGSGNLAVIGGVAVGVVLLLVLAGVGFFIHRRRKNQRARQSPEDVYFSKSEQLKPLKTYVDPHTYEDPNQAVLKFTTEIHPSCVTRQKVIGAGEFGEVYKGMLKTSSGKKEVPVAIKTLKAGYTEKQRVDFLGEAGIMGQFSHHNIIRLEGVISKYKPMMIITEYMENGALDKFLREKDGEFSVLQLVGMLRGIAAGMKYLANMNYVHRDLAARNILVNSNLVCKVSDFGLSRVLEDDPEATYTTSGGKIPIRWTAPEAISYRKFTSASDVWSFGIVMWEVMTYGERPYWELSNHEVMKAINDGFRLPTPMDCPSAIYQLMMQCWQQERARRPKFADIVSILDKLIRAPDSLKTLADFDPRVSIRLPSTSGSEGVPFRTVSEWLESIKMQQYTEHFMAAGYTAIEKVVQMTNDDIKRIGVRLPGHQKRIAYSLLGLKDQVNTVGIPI

DDR1 = DDR1 (Homo sapiens, UniProt Q08345); experiment: HotSpot Kinase Assay, DDR1
Sequence of DDR1 (Q08345 19-913): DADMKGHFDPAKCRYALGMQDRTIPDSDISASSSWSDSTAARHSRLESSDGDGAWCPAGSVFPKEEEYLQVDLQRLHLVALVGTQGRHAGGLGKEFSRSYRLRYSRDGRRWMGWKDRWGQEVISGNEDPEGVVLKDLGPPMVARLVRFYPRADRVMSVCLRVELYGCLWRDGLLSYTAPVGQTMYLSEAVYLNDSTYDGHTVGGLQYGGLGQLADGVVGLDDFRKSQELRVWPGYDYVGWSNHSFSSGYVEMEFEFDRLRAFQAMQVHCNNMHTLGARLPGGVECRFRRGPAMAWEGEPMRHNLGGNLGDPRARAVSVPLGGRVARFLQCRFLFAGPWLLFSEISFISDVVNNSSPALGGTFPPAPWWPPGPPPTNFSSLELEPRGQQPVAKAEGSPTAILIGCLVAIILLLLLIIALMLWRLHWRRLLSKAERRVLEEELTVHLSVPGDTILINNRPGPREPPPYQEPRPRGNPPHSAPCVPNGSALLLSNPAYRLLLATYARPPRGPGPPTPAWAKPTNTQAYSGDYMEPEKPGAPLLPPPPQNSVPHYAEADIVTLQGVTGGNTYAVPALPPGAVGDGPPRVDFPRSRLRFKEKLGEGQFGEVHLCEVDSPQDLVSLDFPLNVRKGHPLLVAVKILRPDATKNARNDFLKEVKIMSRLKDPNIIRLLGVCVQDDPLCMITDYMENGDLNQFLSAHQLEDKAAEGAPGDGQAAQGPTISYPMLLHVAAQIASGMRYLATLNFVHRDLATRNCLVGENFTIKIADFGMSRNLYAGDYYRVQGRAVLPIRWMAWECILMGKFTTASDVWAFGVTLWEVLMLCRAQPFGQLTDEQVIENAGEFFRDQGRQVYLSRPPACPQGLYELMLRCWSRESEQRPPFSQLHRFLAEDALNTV
Description: as §1

AXL = molecular target: T2, AXL (Homo sapiens, UniProt P30530); experiment: HotSpot Kinase Assay, AXL
T2 sequence (P30530 26-894): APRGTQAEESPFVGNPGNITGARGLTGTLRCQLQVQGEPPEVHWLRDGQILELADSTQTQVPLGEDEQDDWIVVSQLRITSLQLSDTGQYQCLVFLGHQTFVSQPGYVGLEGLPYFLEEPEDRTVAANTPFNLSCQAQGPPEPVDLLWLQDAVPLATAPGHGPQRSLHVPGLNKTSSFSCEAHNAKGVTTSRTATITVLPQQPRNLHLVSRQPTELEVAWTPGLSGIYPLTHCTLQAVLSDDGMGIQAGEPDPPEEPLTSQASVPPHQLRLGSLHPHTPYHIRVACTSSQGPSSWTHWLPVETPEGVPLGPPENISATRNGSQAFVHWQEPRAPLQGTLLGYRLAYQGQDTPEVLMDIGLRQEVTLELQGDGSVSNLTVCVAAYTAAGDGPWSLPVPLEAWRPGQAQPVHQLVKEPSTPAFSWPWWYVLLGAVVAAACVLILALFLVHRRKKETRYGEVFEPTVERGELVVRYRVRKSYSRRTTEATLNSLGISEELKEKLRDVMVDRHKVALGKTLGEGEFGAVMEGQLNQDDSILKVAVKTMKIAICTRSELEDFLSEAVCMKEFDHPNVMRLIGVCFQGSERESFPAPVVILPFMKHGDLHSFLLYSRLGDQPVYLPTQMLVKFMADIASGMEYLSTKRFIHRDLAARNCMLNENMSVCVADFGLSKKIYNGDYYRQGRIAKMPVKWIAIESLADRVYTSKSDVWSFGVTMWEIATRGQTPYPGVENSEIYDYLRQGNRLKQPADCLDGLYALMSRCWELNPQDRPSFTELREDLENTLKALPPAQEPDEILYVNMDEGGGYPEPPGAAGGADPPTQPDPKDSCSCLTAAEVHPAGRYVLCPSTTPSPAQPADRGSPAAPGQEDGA

c-Kit = c-Kit (Homo sapiens, UniProt P10721); experiment: HotSpot Kinase Assay, c-Kit
KDR/VEGFR2 = KDR/VEGFR2 (Homo sapiens, UniProt P35968); experiment: HotSpot Kinase Assay, KDR/VEGFR2
Description: as §1

TYRO3/SKY = molecular target: T3, TYRO3/SKY (Homo sapiens, UniProt Q06418); experiment: HotSpot Kinase Assay, TYRO3/SKY
T3 sequence (Q06418 41-890): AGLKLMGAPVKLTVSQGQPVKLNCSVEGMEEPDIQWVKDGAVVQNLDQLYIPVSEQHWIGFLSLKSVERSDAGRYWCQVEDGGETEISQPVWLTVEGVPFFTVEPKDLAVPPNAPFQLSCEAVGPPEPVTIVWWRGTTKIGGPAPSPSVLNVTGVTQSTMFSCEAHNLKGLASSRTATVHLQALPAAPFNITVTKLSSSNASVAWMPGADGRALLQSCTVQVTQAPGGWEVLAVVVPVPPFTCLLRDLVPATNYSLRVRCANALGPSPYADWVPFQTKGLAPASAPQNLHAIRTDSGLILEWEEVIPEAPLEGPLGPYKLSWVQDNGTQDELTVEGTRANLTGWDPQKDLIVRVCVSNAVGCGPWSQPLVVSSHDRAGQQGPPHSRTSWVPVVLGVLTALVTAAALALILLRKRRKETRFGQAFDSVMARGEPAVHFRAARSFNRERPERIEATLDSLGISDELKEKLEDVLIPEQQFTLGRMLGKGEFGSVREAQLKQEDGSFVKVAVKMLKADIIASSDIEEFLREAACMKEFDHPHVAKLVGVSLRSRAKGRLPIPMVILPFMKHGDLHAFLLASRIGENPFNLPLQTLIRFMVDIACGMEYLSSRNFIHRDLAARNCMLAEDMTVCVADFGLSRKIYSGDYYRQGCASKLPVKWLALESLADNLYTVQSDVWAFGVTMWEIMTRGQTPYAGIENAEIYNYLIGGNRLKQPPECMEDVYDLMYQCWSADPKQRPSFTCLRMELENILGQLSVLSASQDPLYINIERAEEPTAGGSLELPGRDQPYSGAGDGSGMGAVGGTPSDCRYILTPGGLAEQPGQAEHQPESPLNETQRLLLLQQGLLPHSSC

c-MET = c-MET (Homo sapiens, UniProt P08581); experiment: HotSpot Kinase Assay, c-MET
Sequence of c-MET (P08581 25-1390): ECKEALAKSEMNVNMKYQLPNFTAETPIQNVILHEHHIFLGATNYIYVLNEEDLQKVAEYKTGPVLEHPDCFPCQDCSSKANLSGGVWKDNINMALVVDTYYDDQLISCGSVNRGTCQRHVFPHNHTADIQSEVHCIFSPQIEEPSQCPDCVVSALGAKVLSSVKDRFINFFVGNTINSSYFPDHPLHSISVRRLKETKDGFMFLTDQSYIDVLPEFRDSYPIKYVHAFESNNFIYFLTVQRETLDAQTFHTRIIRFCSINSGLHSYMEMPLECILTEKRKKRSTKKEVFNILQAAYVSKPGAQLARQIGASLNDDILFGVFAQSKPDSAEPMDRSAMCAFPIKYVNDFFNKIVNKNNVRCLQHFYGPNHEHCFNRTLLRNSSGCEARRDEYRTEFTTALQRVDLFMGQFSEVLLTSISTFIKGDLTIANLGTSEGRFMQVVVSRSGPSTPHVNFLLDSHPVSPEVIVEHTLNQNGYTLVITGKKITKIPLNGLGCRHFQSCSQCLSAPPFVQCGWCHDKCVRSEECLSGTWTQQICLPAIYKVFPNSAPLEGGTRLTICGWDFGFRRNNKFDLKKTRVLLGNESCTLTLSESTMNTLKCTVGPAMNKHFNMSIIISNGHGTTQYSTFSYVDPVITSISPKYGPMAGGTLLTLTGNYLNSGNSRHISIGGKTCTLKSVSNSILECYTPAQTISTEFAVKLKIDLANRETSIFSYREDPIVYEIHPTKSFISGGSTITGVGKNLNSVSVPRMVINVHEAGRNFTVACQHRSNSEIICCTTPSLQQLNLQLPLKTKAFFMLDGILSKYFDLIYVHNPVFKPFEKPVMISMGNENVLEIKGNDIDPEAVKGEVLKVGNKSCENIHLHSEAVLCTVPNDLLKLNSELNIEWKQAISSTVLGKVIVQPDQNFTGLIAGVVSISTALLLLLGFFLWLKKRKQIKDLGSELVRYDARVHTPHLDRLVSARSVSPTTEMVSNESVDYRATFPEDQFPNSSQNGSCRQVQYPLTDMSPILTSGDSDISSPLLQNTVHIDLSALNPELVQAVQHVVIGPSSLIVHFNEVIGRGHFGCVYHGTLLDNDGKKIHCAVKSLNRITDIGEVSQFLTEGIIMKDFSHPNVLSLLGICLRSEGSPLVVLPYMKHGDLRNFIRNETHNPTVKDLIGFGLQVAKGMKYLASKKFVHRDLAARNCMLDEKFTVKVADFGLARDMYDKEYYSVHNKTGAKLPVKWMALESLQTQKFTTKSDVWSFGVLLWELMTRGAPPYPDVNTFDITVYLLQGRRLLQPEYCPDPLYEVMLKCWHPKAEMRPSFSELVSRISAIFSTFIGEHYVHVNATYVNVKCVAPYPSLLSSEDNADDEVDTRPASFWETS

LOK/STK10 = LOK/STK10 (Homo sapiens, UniProt O94804); experiment: HotSpot Kinase Assay, LOK/STK10
Sequence of LOK/STK10 (O94804 whole entry): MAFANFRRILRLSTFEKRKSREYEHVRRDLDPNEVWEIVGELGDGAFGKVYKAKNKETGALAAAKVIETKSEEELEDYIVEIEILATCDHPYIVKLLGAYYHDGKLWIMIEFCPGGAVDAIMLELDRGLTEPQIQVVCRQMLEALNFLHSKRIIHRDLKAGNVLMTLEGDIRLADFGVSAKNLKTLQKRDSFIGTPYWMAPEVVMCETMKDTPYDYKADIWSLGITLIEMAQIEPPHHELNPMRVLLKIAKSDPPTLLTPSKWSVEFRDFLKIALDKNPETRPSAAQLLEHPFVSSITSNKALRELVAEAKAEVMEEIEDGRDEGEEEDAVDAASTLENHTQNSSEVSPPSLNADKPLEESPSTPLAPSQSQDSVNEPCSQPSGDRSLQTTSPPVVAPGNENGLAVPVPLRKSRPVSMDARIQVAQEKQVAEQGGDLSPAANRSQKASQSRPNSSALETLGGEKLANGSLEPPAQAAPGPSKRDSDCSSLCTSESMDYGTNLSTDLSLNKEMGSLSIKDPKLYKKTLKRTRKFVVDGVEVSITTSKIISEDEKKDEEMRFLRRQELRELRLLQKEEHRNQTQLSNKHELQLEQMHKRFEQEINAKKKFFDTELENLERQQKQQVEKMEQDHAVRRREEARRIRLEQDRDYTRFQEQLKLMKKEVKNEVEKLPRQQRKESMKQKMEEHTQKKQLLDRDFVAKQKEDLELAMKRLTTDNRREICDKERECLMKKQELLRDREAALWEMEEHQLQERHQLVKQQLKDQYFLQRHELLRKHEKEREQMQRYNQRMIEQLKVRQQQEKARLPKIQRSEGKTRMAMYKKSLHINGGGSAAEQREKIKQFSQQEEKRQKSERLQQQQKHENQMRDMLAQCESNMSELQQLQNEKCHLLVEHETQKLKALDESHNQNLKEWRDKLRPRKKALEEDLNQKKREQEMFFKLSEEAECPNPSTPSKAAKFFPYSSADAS

FMS = FMS (Homo sapiens, UniProt P07333); experiment: HotSpot Kinase Assay, FMS

Row | SMILES | pIC50 (c-MER) | pIC50 (EPHA2) | pIC50 (DDR1) | pIC50 (AXL) | pIC50 (c-Kit) | pIC50 (KDR/VEGFR2) | pIC50 (TYRO3/SKY) | pIC50 (c-MET) | pIC50 (LOK/STK10) | pIC50 (FMS)
1 | COc1cc2nccc(Oc3ccc(NC(=O)C4(C(=O)Nc5ccc(F)cc5)CC4)cc3)c2cc1OC(=O)N1[C@H](C)CN(C)C[C@@H]1C [Compound 7-5] | > 7.00 | 6.00 to 7.00 | > 7.00 | > 7.00 | > 7.00 | > 7.00 | > 7.00 | > 7.00 | 6.00 to 7.00 | > 7.00
2 | COc1cc2nccc(Oc3ccc(NC(=O)C4(C(=O)Nc5ccc(F)cc5)CC4)cc3)c2cc1OC(=O)N1CCNCC1(C)C [Compound 7-6] | > 7.00 | 6.00 to 7.00 | > 7.00 | > 7.00 | > 7.00 | > 7.00 | > 7.00 | > 7.00 | 6.00 to 7.00 | 6.00 to 7.00
3 | COc1cc2nccc(Oc3ccc(NC(=O)C4(C(=O)Nc5ccc(F)cc5)CC4)cc3)c2cc1OC(=O)N1CCN(C)CC1(C)C [Compound 7-7] | > 7.00 | 6.00 to 7.00 | > 7.00 | > 7.00 | > 7.00 | 6.00 to 7.00 | 6.00 to 7.00 | > 7.00 | < 6.00 | 6.00 to 7.00
4 | COc1cc2c(Oc3ccc(NC(=O)C4(C(=O)Nc5ccc(F)cc5)CC4)cc3)ncnc2cc1OC(=O)N1CCNC[C@H]1C [Compound 8-5] | 6.00 to 7.00 | < 6.00 | > 7.00 | 6.00 to 7.00 | > 7.00 | < 6.00 | 6.00 to 7.00 | 6.00 to 7.00 | < 6.00 | 6.00 to 7.00
5 | COc1cc2c(Oc3ccc(NC(=O)C4(C(=O)Nc5ccc(F)cc5)CC4)cc3)ncnc2cc1OC(=O)N1CCN(C)C[C@H]1C [Compound 8-6, 4-(4-(1-((4-fluorophenyl)carbamoyl)cyclopropane-1-carboxamido)phenoxy)-6-methoxyquinazolin-7-yl (R)-2,4-methylpiperazine-1-carboxylate] | 6.00 to 7.00 | < 6.00 | > 7.00 | 6.00 to 7.00 | 6.00 to 7.00 | < 6.00 | 6.00 to 7.00 | 6.00 to 7.00 | < 6.00 | 6.00 to 7.00
6 | COc1cc2c(Oc3ccc(NC(=O)C4(C(=O)Nc5ccc(F)cc5)CC4)cc3F)ncnc2cc1OC(=O)N1CCNC[C@H]1C [Compound 9-5] | 6.00 to 7.00 | 6.00 to 7.00 | > 7.00 | > 7.00 | 6.00 to 7.00 | 6.00 to 7.00 | 6.00 to 7.00 | > 7.00 | 6.00 to 7.00 | 6.00 to 7.00
7 | COc1cc2c(Oc3ccc(NC(=O)C4(C(=O)Nc5ccc(F)cc5)CC4)cc3F)ncnc2cc1OC(=O)N1CCN(C)C[C@H]1C [Compound 9-6, 4-(2-fluoro-4-(1-((4-fluorophenyl)carbamoyl)cyclopropane-1-carboxamido)phenoxy)-6-methoxyquinazolin-7-yl (R)-2,4-methylpiperazine-1-carboxylate] | > 7.00 | 6.00 to 7.00 | > 7.00 | > 7.00 | 6.00 to 7.00 | 6.00 to 7.00 | 6.00 to 7.00 | > 7.00 | < 6.00 | 6.00 to 7.00
8 | COc1cc2c(Oc3ccc(NC(=O)C4(C(=O)Nc5ccc(F)cc5)CC4)cc3)ccnc2cc1N1CCNC1=O [Compound 10-2] | > 7.00 | 6.00 to 7.00 | > 7.00 | > 7.00 | > 7.00 | 6.00 to 7.00 | 6.00 to 7.00 | > 7.00 | 6.00 to 7.00 | > 7.00
